Test results reported in the NIST ThermoML archive (doi:10.1021/acs.jced.9b00046).
Numbers after ± are expanded uncertainties.

Assay: mn = molality of the nth substance listed, in mol/kg
Conditions: 99.6 kPa, Liquid; for viscosity: Capillary tube (Ostwald / Ubbelohde) method; for mass density: Vibrating tube method

CNC(C)=O [N-methylacetamide] + [Cl-].[Cl-].[Mg+2]
viscosity (308.15 K, m2 = 0): 3.488 ± 0.043 mPa·s
viscosity (308.15 K, m2 = 0.00111): 3.491 ± 0.043 mPa·s
viscosity (308.15 K, m2 = 0.004): 3.502 ± 0.043 mPa·s
viscosity (308.15 K, m2 = 0.00479): 3.505 ± 0.043 mPa·s
viscosity (308.15 K, m2 = 0.00663): 3.512 ± 0.043 mPa·s
viscosity (308.15 K, m2 = 0.00734): 3.514 ± 0.043 mPa·s
viscosity (308.15 K, m2 = 0.00868): 3.52 ± 0.043 mPa·s
viscosity (308.15 K, m2 = 0.01179): 3.531 ± 0.043 mPa·s
viscosity (308.15 K, m2 = 0.01529): 3.544 ± 0.044 mPa·s
viscosity (308.15 K, m2 = 0.02124): 3.566 ± 0.044 mPa·s
viscosity (308.15 K, m2 = 0.02416): 3.577 ± 0.044 mPa·s
viscosity (308.15 K, m2 = 0.05144): 3.681 ± 0.045 mPa·s
viscosity (308.15 K, m2 = 0.0831): 3.798 ± 0.047 mPa·s
mass density (308.15 K, m2 = 0): 945.71 ± 1.9 kg/m3
mass density (308.15 K, m2 = 0.00111): 945.76 ± 1.9 kg/m3
mass density (308.15 K, m2 = 0.004): 945.9 ± 1.9 kg/m3
mass density (308.15 K, m2 = 0.00479): 945.94 ± 1.9 kg/m3
mass density (308.15 K, m2 = 0.00663): 946.03 ± 1.9 kg/m3
mass density (308.15 K, m2 = 0.00734): 946.06 ± 1.9 kg/m3
mass density (308.15 K, m2 = 0.00868): 946.13 ± 1.9 kg/m3
mass density (308.15 K, m2 = 0.01179): 946.27 ± 1.9 kg/m3
mass density (308.15 K, m2 = 0.01529): 946.45 ± 1.9 kg/m3
mass density (308.15 K, m2 = 0.02124): 946.72 ± 1.9 kg/m3
mass density (308.15 K, m2 = 0.02416): 946.86 ± 1.9 kg/m3
mass density (308.15 K, m2 = 0.05144): 948.15 ± 1.9 kg/m3
mass density (308.15 K, m2 = 0.0831): 949.6 ± 1.9 kg/m3
viscosity (313.15 K, m2 = 0): 3.073 ± 0.038 mPa·s
viscosity (313.15 K, m2 = 0.00111): 3.077 ± 0.038 mPa·s
viscosity (313.15 K, m2 = 0.004): 3.087 ± 0.038 mPa·s
viscosity (313.15 K, m2 = 0.00479): 3.09 ± 0.038 mPa·s
viscosity (313.15 K, m2 = 0.00663): 3.097 ± 0.038 mPa·s
viscosity (313.15 K, m2 = 0.00734): 3.099 ± 0.038 mPa·s
viscosity (313.15 K, m2 = 0.00868): 3.103 ± 0.038 mPa·s
viscosity (313.15 K, m2 = 0.01179): 3.114 ± 0.038 mPa·s
viscosity (313.15 K, m2 = 0.01529): 3.127 ± 0.038 mPa·s
viscosity (313.15 K, m2 = 0.02124): 3.147 ± 0.039 mPa·s
viscosity (313.15 K, m2 = 0.02416): 3.156 ± 0.039 mPa·s
viscosity (313.15 K, m2 = 0.05144): 3.251 ± 0.04 mPa·s
viscosity (313.15 K, m2 = 0.0831): 3.361 ± 0.041 mPa·s
mass density (313.15 K, m2 = 0): 941.53 ± 1.9 kg/m3
mass density (313.15 K, m2 = 0.00111): 941.57 ± 1.9 kg/m3
mass density (313.15 K, m2 = 0.004): 941.69 ± 1.9 kg/m3
mass density (313.15 K, m2 = 0.00479): 941.73 ± 1.9 kg/m3
mass density (313.15 K, m2 = 0.00663): 941.81 ± 1.9 kg/m3
mass density (313.15 K, m2 = 0.00734): 941.85 ± 1.9 kg/m3
mass density (313.15 K, m2 = 0.00868): 941.92 ± 1.9 kg/m3
mass density (313.15 K, m2 = 0.01179): 942.07 ± 1.9 kg/m3
mass density (313.15 K, m2 = 0.01529): 942.24 ± 1.9 kg/m3
mass density (313.15 K, m2 = 0.02124): 942.53 ± 1.9 kg/m3
mass density (313.15 K, m2 = 0.02416): 942.67 ± 1.9 kg/m3
mass density (313.15 K, m2 = 0.05144): 943.94 ± 1.9 kg/m3
mass density (313.15 K, m2 = 0.0831): 945.45 ± 1.9 kg/m3
viscosity (318.15 K, m2 = 0): 2.723 ± 0.034 mPa·s
viscosity (318.15 K, m2 = 0.00111): 2.725 ± 0.034 mPa·s
viscosity (318.15 K, m2 = 0.004): 2.735 ± 0.034 mPa·s
viscosity (318.15 K, m2 = 0.00479): 2.737 ± 0.034 mPa·s
viscosity (318.15 K, m2 = 0.00663): 2.743 ± 0.034 mPa·s
viscosity (318.15 K, m2 = 0.00734): 2.747 ± 0.034 mPa·s
viscosity (318.15 K, m2 = 0.00868): 2.75 ± 0.034 mPa·s
viscosity (318.15 K, m2 = 0.01179): 2.76 ± 0.034 mPa·s
viscosity (318.15 K, m2 = 0.01529): 2.771 ± 0.034 mPa·s
viscosity (318.15 K, m2 = 0.02124): 2.792 ± 0.034 mPa·s
viscosity (318.15 K, m2 = 0.02416): 2.801 ± 0.034 mPa·s
viscosity (318.15 K, m2 = 0.05144): 2.89 ± 0.036 mPa·s
viscosity (318.15 K, m2 = 0.0831): 2.994 ± 0.037 mPa·s
mass density (318.15 K, m2 = 0): 937.33 ± 1.9 kg/m3
mass density (318.15 K, m2 = 0.00111): 937.37 ± 1.9 kg/m3
mass density (318.15 K, m2 = 0.004): 937.51 ± 1.9 kg/m3
mass density (318.15 K, m2 = 0.00479): 937.54 ± 1.9 kg/m3
mass density (318.15 K, m2 = 0.00663): 937.63 ± 1.9 kg/m3
mass density (318.15 K, m2 = 0.00734): 937.66 ± 1.9 kg/m3
mass density (318.15 K, m2 = 0.00868): 937.73 ± 1.9 kg/m3
mass density (318.15 K, m2 = 0.01179): 937.87 ± 1.9 kg/m3
mass density (318.15 K, m2 = 0.01529): 938.04 ± 1.9 kg/m3
mass density (318.15 K, m2 = 0.02124): 938.33 ± 1.9 kg/m3
mass density (318.15 K, m2 = 0.02416): 938.47 ± 1.9 kg/m3
mass density (318.15 K, m2 = 0.05144): 939.77 ± 1.9 kg/m3
mass density (318.15 K, m2 = 0.0831): 941.26 ± 1.9 kg/m3
viscosity (323.15 K, m2 = 0): 2.438 ± 0.03 mPa·s
viscosity (323.15 K, m2 = 0.00111): 2.44 ± 0.03 mPa·s
viscosity (323.15 K, m2 = 0.004): 2.448 ± 0.03 mPa·s
viscosity (323.15 K, m2 = 0.00479): 2.451 ± 0.03 mPa·s
viscosity (323.15 K, m2 = 0.00663): 2.455 ± 0.03 mPa·s
viscosity (323.15 K, m2 = 0.00734): 2.457 ± 0.03 mPa·s
viscosity (323.15 K, m2 = 0.00868): 2.462 ± 0.03 mPa·s
viscosity (323.15 K, m2 = 0.01179): 2.471 ± 0.03 mPa·s
viscosity (323.15 K, m2 = 0.01529): 2.48 ± 0.031 mPa·s
viscosity (323.15 K, m2 = 0.02124): 2.495 ± 0.031 mPa·s
viscosity (323.15 K, m2 = 0.02416): 2.505 ± 0.031 mPa·s
viscosity (323.15 K, m2 = 0.05144): 2.579 ± 0.032 mPa·s
viscosity (323.15 K, m2 = 0.0831): 2.67 ± 0.033 mPa·s
mass density (323.15 K, m2 = 0): 933.16 ± 1.9 kg/m3
mass density (323.15 K, m2 = 0.00111): 933.2 ± 1.9 kg/m3
mass density (323.15 K, m2 = 0.004): 933.33 ± 1.9 kg/m3
mass density (323.15 K, m2 = 0.00479): 933.37 ± 1.9 kg/m3
mass density (323.15 K, m2 = 0.00663): 933.45 ± 1.9 kg/m3
mass density (323.15 K, m2 = 0.00734): 933.48 ± 1.9 kg/m3
mass density (323.15 K, m2 = 0.00868): 933.54 ± 1.9 kg/m3
mass density (323.15 K, m2 = 0.01179): 933.7 ± 1.9 kg/m3
mass density (323.15 K, m2 = 0.01529): 933.87 ± 1.9 kg/m3
mass density (323.15 K, m2 = 0.02124): 934.15 ± 1.9 kg/m3
mass density (323.15 K, m2 = 0.02416): 934.29 ± 1.9 kg/m3
mass density (323.15 K, m2 = 0.05144): 935.6 ± 1.9 kg/m3
mass density (323.15 K, m2 = 0.0831): 937.11 ± 1.9 kg/m3
viscosity (328.15 K, m2 = 0): 2.194 ± 0.027 mPa·s
viscosity (328.15 K, m2 = 0.00111): 2.196 ± 0.027 mPa·s
viscosity (328.15 K, m2 = 0.004): 2.203 ± 0.027 mPa·s
viscosity (328.15 K, m2 = 0.00479): 2.204 ± 0.027 mPa·s
viscosity (328.15 K, m2 = 0.00663): 2.208 ± 0.027 mPa·s
viscosity (328.15 K, m2 = 0.00734): 2.211 ± 0.027 mPa·s
viscosity (328.15 K, m2 = 0.00868): 2.214 ± 0.027 mPa·s
viscosity (328.15 K, m2 = 0.01179): 2.221 ± 0.027 mPa·s
viscosity (328.15 K, m2 = 0.01529): 2.23 ± 0.028 mPa·s
viscosity (328.15 K, m2 = 0.02124): 2.244 ± 0.028 mPa·s
viscosity (328.15 K, m2 = 0.02416): 2.251 ± 0.028 mPa·s
viscosity (328.15 K, m2 = 0.05144): 2.317 ± 0.029 mPa·s
viscosity (328.15 K, m2 = 0.0831): 2.391 ± 0.029 mPa·s
mass density (328.15 K, m2 = 0): 928.93 ± 1.9 kg/m3
mass density (328.15 K, m2 = 0.00111): 928.98 ± 1.9 kg/m3
mass density (328.15 K, m2 = 0.004): 929.12 ± 1.9 kg/m3
mass density (328.15 K, m2 = 0.00479): 929.16 ± 1.9 kg/m3
mass density (328.15 K, m2 = 0.00663): 929.24 ± 1.9 kg/m3
mass density (328.15 K, m2 = 0.00734): 929.29 ± 1.9 kg/m3
mass density (328.15 K, m2 = 0.00868): 929.35 ± 1.9 kg/m3
mass density (328.15 K, m2 = 0.01179): 929.49 ± 1.9 kg/m3
mass density (328.15 K, m2 = 0.01529): 929.68 ± 1.9 kg/m3
mass density (328.15 K, m2 = 0.02124): 929.95 ± 1.9 kg/m3
mass density (328.15 K, m2 = 0.02416): 930.09 ± 1.9 kg/m3
mass density (328.15 K, m2 = 0.05144): 931.4 ± 1.9 kg/m3
mass density (328.15 K, m2 = 0.0831): 932.91 ± 1.9 kg/m3
